# How the values were obtained:
# [1] = target: T1, Solute carrier organic anion transporter family member 1A1 (Rattus norvegicus, UniProt P46720); assay: (§1) TP_TRANSPORTER: inhibition of E217betaG uptake in Xenopus laevis oocytes; assay type: functional, cell-based, Oocyte
# T1 sequence (P46720 whole entry): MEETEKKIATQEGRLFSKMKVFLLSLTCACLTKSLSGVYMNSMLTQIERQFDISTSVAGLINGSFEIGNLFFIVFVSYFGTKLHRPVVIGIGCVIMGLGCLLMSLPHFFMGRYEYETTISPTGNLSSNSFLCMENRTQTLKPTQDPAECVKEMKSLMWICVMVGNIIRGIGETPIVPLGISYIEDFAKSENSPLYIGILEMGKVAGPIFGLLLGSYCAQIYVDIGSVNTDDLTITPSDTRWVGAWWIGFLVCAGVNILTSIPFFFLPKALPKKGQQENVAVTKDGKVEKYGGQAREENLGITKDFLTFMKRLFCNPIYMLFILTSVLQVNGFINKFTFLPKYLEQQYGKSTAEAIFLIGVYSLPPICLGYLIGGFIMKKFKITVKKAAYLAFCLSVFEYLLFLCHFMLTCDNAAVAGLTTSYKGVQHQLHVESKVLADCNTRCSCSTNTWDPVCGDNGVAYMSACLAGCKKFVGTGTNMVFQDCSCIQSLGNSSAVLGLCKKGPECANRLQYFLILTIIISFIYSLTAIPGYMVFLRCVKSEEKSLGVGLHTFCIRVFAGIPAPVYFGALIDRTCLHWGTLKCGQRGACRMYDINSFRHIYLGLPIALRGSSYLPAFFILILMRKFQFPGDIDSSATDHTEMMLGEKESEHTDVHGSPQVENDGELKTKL
# [2] = target: T2, Solute carrier organic anion transporter family member 1A4 (Rattus norvegicus, UniProt O35913); assay: as §1; assay type: functional, cell-based, Oocyte
# T2 sequence (O35913 whole entry): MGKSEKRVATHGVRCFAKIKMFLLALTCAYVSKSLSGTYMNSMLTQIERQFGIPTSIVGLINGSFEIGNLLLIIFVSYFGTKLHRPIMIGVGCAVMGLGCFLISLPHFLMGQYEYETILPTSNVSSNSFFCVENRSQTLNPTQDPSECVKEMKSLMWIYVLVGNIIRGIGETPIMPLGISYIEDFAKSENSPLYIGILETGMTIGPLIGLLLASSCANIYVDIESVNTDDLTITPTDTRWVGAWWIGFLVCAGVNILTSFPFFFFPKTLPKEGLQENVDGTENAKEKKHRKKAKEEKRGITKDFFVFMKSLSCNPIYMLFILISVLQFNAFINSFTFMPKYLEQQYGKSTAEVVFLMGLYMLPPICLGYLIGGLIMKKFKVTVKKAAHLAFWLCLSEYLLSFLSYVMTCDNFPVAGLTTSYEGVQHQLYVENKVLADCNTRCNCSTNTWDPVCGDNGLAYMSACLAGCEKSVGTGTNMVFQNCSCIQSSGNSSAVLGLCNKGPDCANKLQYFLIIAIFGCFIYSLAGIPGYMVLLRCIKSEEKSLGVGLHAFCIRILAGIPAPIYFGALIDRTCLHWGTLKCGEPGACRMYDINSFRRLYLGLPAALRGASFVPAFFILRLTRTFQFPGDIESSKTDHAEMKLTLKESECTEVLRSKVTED
SMILES,Ki [1],Ki [2]
CO[C@H]1/C=C/O[C@@]2(C)Oc3c(C)c(O)c4c(O)c(cc(O)c4c3C2=O)NC(=O)/C(C)=C\C=C\[C@H](C)[C@H](O)[C@@H](C)[C@@H](O)[C@@H](C)[C@H](OC(C)=O)[C@@H]1C [RIFAMYCIN],6.6 µM,7.3 µM
CO[C@H]1/C=C/O[C@@]2(C)Oc3c(C)c(O)c4c(O)c(c(/C=N/N5CCN(C)CC5)c(O)c4c3C2=O)NC(=O)/C(C)=C\C=C\[C@H](C)[C@H](O)[C@@H](C)[C@@H](O)[C@@H](C)[C@H](OC(C)=O)[C@@H]1C [RIFAMPIN],–,1.4 µM

# Reference: ChEMBL document CHEMBL2073820, “Rifamycin SV and rifampicin exhibit differential inhibition of the hepatic rat organic anion transporting polypeptides, Oatp1 and Oatp2” (Hepatology, 2000)
